Experiments:
[1] = tested on: osteoclastogenesis (formation of multinucleated osteoclasts); test: Osteoclastogenesis inhibition via co-culture system (bone marrow cells + osteoblasts, TRAP staining); assay type: cell-based, mouse; settings: Mus musculus, Osteoclast, 168 h, 7 days co-culture, vs vehicle control
Procedure: Osteoclastogenesis inhibitory effects of the compounds of the present invention were evaluated via a co-culture system (Reference: Endocrinology 137(1996), 2187 to 2190, E. Jimi et al.). A specific experimental method is as follows.
1) Preparation of Bone Marrow Cells and Osteoblasts
Femur and tibia were aseptically dissected from 6 to 8-week-old male ddY mice to harvest bone marrow cells by a conventional method using a syringe. In brief, tissues were removed from the dissected bone, the bone ends were cut off with scissors, and the bone marrow was isolated by pushing a medium-containing syringe (23G) against the one end of the cut bone. The isolated bone marrow was subjected to repeated piston movement of a syringe such that single cells were obtained (Reference: Endocrinology 123(1988), 2600 to 2602, Takahashi et al.). After removal of red blood cells within the bone marrow, the bone marrow cells recovered by centrifugation were placed in an α-MEM supplemented with 10% fetal bovine serum (FBS), followed by counting of nucleated cells and then were immediately used for a co-culture system.
For the preparation of osteoblasts (Calvarial cells), the cranial bone were aseptically dissected from 1 to 2-day-old neonatal ICR mice and subjected to continuous reaction with a 0.2% collagenase solution to separate osteoblasts. The cell-suspended supernatant was centrifuged to recover osteoblasts which were grown to full confluence in an α-MEM supplemented with 10% FBS and then diluted to a desired cell density for use in the experiment.
2) Osteoclastogenesis Inhibition Experiment Via Co-Culture System
As the medium used for a co-culture system, a differentiation medium with the addition of differentiation factors 1α,25-dihydroxyvitamin D3 (10^−8M) and dexamethasone (10^−8M) to α-MEM supplemented with 10% FBS was used for the induction of osteoclastogenesis. First, the compounds of the present invention dissolved in dimethyl sulfoxide (DMSO) at a concentration of 1 mM were diluted to 2 μM using the above-mentioned differentiation medium. As a vehicle control group, 0.2% (v/v) DMSO was added to the medium. 100 μL/well of each medium was added to 96-well plates. In addition, the above prepared bone marrow cells and osteoblasts were plated onto 96-well plates at a density of 1×10^5 cells/50 μL/well and 3×10^3 cells/50 μL/well, respectively. The total volume/well was 200 μL and the final compound concentration was 1 μM. The control group was 0.1% (v/v) DMSO. The cells were cultured with exchange of the culture media with fresh media containing differentiation factors and test materials (materials containing the compounds of the present invention) at an interval of 2 to 3 days.
7 days after culturing of cells, the formation of multinucleated osteoclasts was confirmed by microscopic examination, the medium was removed from the wells and then the cells were fixed in a 10% phosphate-buffered formalin solution. The degree of formation of mature osteoclasts was measured taking advantage of the characteristics of osteoclasts showing a positive reaction to a tartrate-resistant acid phosphatase (TRAP) staining solution. The TRAP staining solution was prepared in a manner such that naphthol AS-MS phosphate as a substrate and a coloring agent (Fast Red Violet LB salt) were dissolved in N,N-dimethylformamide, and a 0.1N NaHCO3 buffer solution containing 50 mM of tartaric acid was added thereto. Among the TRAP-positive cells under a light microscope, multinucleated osteoclasts having 6 to 7 nuclei were regarded as mature osteoclasts.
The degree of inhibition of osteoclastogenesis was calculated according to the following equation 1. The results are summarized in Table 2 below (Experiments were carried out for 4 wells/experimental group (n=4), and the results are given in terms of mean±standard deviation) […]

[2] = tested on: Calvarial cell; test: Cytotoxicity test (MTT) in osteoblasts (calvarial cells); settings: 1 μM, 72 hours, vs vehicle control
Procedure: Drugs were diluted to a concentration of 2 μM in α-MEM culture media supplemented with 10% FBS. The vehicle control group was established to contain 0.2% DMSO. 100 μL/well of the diluted drugs were dispensed into 96-well plates to which osteoblasts (calvarial cells) prepared in Experimental Example 1 were then added at a density of 1.0×10^4 cells/100 μL/well. Here, the final compound concentration in the cell culture was 1 μM, and the vehicle control group contained 0.1% DMSO. The cells were cultured in a 5% CO2 inhibitorr at 37° for 72 hours. 25 μL of 3-(4,5-dimethyl-2-thiazolyl)-2,5-diphenyl-2H-tetrazolium bromide (MTT) dissolved in PBS (2 mg/mL) was added to each cell culture 4 hours before the end of culture. After completion of the reaction, the plates were centrifuged, the media were discarded, and 100 μL of formazan was added and dissolved in dimethyl sulfoxide (DMSO). Finally, the absorbance of the developed plates was measured at 540 nm. The cell viability was expressed as % concentration in comparison with the vehicle control group.

Row | Structure (SMILES) | inhibition at 1 µM [1] | Cell viability (%) Calvarial cell [2]
1 | O=[N+]([O-])c1ccc(NCCCn2ccnc2)nc1Nc1ccc2[nH]ncc2c1 [Compound 29, 2-(1H-indazol-5-yl)amino-6-[3-(imidazol-1-yl)propylamino]-3-nitropyridine] | 73% | 117%
2 | CC1CN(c2ccc([N+](=O)[O-])c(Nc3ccc4[nH]ncc4c3)n2)CC(C)N1 (centres unmarked) [Compound 44, 2-(1H-indazol-5-yl)amino-6-(3,5-dimethylpiperazin-1-yl)-3-nitropyridine] | 90% | 96%
3 | O=[N+]([O-])c1ccc(NCCc2c[nH]cn2)nc1Nc1ccc2[nH]ncc2c1 [Compound 48, 2-(1H-indazol-5-yl)amino-6-[(imidazol-4-yl)ethylamino]-3-nitropyridine] | – | 96%
4 | O=[N+]([O-])c1ccc(NCCN2CCOCC2)nc1Nc1ccc2cn[nH]c2c1 [Compound 28, 2-(1H-indazol-6-yl)amino-6-(2-morpholinoethylamino)-3-nitropyridine] | 74% | 104%
5 | C[C@@H](CO)Nc1ccc([N+](=O)[O-])c(Nc2ccc3cn[nH]c3c2)n1 [Compound 18, 2-(1H-indazol-6-yl)amino-6-[(1-(S)-methyl-2-hydroxyethyl)-amino]-3-nitropyridine] | – | 98%
6 | O=[N+]([O-])c1ccc(NCCc2ccccn2)nc1Nc1ccc2[nH]ncc2c1 [Compound 27, 2-(1H-indazol-5-yl)amino-6-[(2-pyridyl)ethylamino]-3-nitropyridine] | 90% | 97%
7 | O=[N+]([O-])c1ccc(NCc2cccnc2)nc1Nc1ccc2cn[nH]c2c1 [Compound 46, 2-(1H-indazo-6-yl)amino-6-[(3-pyridyl)methylamino]-3-nitropyridine] | – | 99%
8 | CN1CCN(c2ccc([N+](=O)[O-])c(Nc3ccc4cn[nH]c4c3)n2)CC1 [Compound 40, 2-(1H-indazol-6-yl)amino-6-(4-methylpiperazin-1-yl)-3-nitropyridine] | – | 95%
9 | O=[N+]([O-])c1ccc(N2CCNCC2)nc1Nc1ccc2cn[nH]c2c1 [Compound 38, 2-(1H-indazol-6-yl)amino-6-(piperazin-1-yl)-3-nitropyridine] | 90% | 91%
10 | NC1CCN(c2ccc([N+](=O)[O-])c(Nc3ccc4[nH]ncc4c3)n2)CC1 [Compound 51, 2-(1H-indazol-5-yl)amino-6-[(4-amino)piperidino]-3-nitropyridine] | – | 73%
11 | CC(C)(C)NNc1ccc([N+](=O)[O-])c(Nc2ccc3[nH]ncc3c2)n1 [Compound 43, 2-(1H-indazol-5-yl)amino-6-[(t-butylamino)amino]-3-nitropyridine] | – | 100%
12 | CC1(C)CN(c2ccc([N+](=O)[O-])c(Nc3ccc4[nH]ncc4c3)n2)CC(C)(C)N1 [Compound 13, 2-(1H-indazol-5-yl)amino-6-(2,2,6,6-tetramethylpiperazin-4-yl)-3-nitropyridine] | 88% | 94%
13 | NCCCCNc1ccc([N+](=O)[O-])c(Nc2ccc3[nH]ncc3c2)n1 [Compound 50, 2-(1H-indazol-5-yl)amino-6-(4-amino-n-butylamino)-3-nitropyridine] | 100% | 95%
14 | Cc1cncn1-c1ccc([N+](=O)[O-])c(Nc2ccc3[nH]ncc3c2)n1 [Compound 4, 2-(1H-indazol-5-yl)amino-6-(5-methylimidazol-1-yl)-3-nitropyridine] | 67% | 101%
15 | Cc1nccn1-c1ccc([N+](=O)[O-])c(Nc2ccc3[nH]ncc3c2)n1 [Compound 2, 2-(1H-indazol-5-yl)amino-6-(2-methylimidazol-1-yl)-3-nitropyridine] | 70% | 104%
16 | O=[N+]([O-])c1ccc(NCc2cccnc2)nc1Nc1ccc2[nH]ncc2c1 [Compound 45, 2-(1H-indazol-5-yl)amino-6-[(3-pyridyl)methylamino]-3-nitropyridine] | – | 103%
17 | O=[N+]([O-])c1ccc(N2CCN(CCO)CC2)nc1Nc1ccc2[nH]ncc2c1 [Compound 15, 2-(1H-indazol-5-yl)amino-6-[4-(2-hydroxyethyl)piperazin-1-yl]-3-nitropyridine] | 98% | 90%
18 | NC1CCCCC1Nc1ccc([N+](=O)[O-])c(Nc2ccc3[nH]ncc3c2)n1 (centres unmarked) [Compound 30, 2-(1H-indazol-5-yl)amino-6-[(2-aminocyclohexyl)amino]-3-nitropyridine] | 100% | 114%
19 | O=[N+]([O-])c1ccc(NCc2ccncc2)nc1Nc1ccc2[nH]ncc2c1 [Compound 47, 2-(1H-indazol-5-yl)amino-6-[(4-pyridyl)methylamino]-3-nitropyridine] | 71% | 102%
20 | Nc1ccc([N+](=O)[O-])c(Nc2ccc3[nH]ncc3c2)n1 [Compound 32, 2-(1H-indazol-5-yl)amino-6-amino-3-nitropyridine] | 100% | 99%
21 | C[C@@H](CO)Nc1ccc([N+](=O)[O-])c(Nc2ccc3[nH]ncc3c2)n1 [Compound 36, 2-(1H-indazol-5-yl)amino-6-[(1-(S)-methyl-2-hydroxyethyl)-amino]-3-nitropyridine] | 72% | 103%
22 | CNc1ccc([N+](=O)[O-])c(Nc2ccc3cn[nH]c3c2)n1 [Compound 31, 2-(1H-indazol-6-yl)amino-6-(methylamino)-3-nitropyridine] | – | 97%
23 | O=[N+]([O-])c1ccc(N2CCC(O)CC2)nc1Nc1ccc2cn[nH]c2c1 [Compound 41, 2-(1H-indazol-6-yl)amino-6-(4-hydroxypiperidino)-3-nitropyridine] | – | 98%
24 | CN1CCN(Nc2ccc([N+](=O)[O-])c(Nc3ccc4[nH]ncc4c3)n2)CC1 [Compound 42, 2-(1H-indazol-5-yl)amino-6-[(4-methylpiperazin-1-yl)amino]-3-nitropyridine] | – | 106%

Reference: patent publication US20110306641A1, “NOVEL 2,6-SUBSTITUTED-3-NITROPYRIDINE DERIVATIVE, METHOD FOR PREPARING SAME, AND PHARMACEUTICAL PREPARATION INCLUDING SAME” (priority 2008, published 2011)
